BindingDB's records for doi:10.1021/jm060797q (Teikyo University, 2006)

Assay: Antagonist activity against 1-alpha,25-dihydroxy vitamin D3-induced HL60 cell differentiation by NBT reduction method

Q: For `C=C1/C(=C\C=C2/CCC[C@]3(C)[C@@H]([C@H](C)C[C@H]4OC(=O)C(=C)C4(C)C)CC[C@@H]23)C[C@@H](O)C[C@@H]1O`, which IC50 is on record?
A: The IC50 was 6 nM.

Q: Which IC50 does the source give for `C=C1/C(=C\C=C2/CCC[C@]3(C)[C@@H]([C@H](C)C[C@@H]4OC(=O)C(=C)[C@@H]4CC)CC[C@@H]23)C[C@@H](O)[C@H](C)[C@@H]1O` here?
A: Its IC50 is 6.7 nM.

Q: For `C=C1/C(=C\C=C2/CCC[C@]3(C)[C@@H]([C@H](C)C[C@H]4OC(=O)C(=C)[C@@H]4C)CC[C@@H]23)C[C@@H](O)[C@H](OCCCO)[C@@H]1O`, which IC50 is on record?
A: The IC50 was 6.1 nM.

Q: For `C=C1/C(=C\C=C2/CCC[C@]3(C)[C@@H]([C@H](C)C[C@@H]4OC(=O)C(=C)[C@@H]4CCCC)CC[C@@H]23)C[C@@H](O)C[C@@H]1O`, which IC50 is on record?
A: The IC50 was 8.2 nM.

Q: Which IC50 does the source give for `C=C1/C(=C\C=C2/CCC[C@]3(C)[C@@H]([C@H](C)C[C@H]4OC(=O)C(=C)[C@H]4CC)CC[C@@H]23)C[C@@H](O)[C@H](C)[C@@H]1O` here?
A: The IC50 was 6.7 nM.

Q: With `C=C1/C(=C\C=C2/CCC[C@]3(C)[C@@H]([C@H](C)C[C@H]4OC(=O)C(=C)[C@@H]4CCCC)CC[C@@H]23)C[C@@H](O)C[C@@H]1O` as the molecule, how does the IC50 read?
A: The IC50 was 8.2 nM.

Q: Which IC50 does the source give for `C=C1/C(=C\C=C2/CCC[C@]3(C)[C@@H]([C@H](C)C[C@H]4OC(=O)C(=C)[C@H]4CCC)CC[C@@H]23)C[C@@H](O)[C@H](C)[C@@H]1O` here?
A: The IC50 was 6.3 nM.

Q: With `C=C1/C(=C\C=C2/CCC[C@]3(C)[C@@H]([C@H](C)C[C@H]4OC(=O)C(=C)[C@H]4CCC)CC[C@@H]23)C[C@@H](O)[C@H](OCCCO)[C@@H]1O` as the molecule, how does the IC50 read?
A: Its IC50 is 6.3 nM.

Q: With `C=C1C(=O)O[C@@H](C[C@@H](C)[C@H]2CC[C@H]3/C(=C/C=C4/C[C@@H](O)[C@H](OCCCO)[C@H](O)C4=C)CCC[C@]23C)[C@@H]1C` as the molecule, how does the IC50 read?
A: The IC50 was 6.1 nM.

Q: With `C=C1/C(=C\C=C2/CCC[C@]3(C)[C@@H]([C@H](C)C[C@H]4OC(=O)C(=C)[C@@H]4CC)CC[C@@H]23)C[C@@H](O)[C@H](CCCO)[C@@H]1O` as the molecule, how does the IC50 read?
A: The IC50 was 8.4 nM.

Q: With `C=C1/C(=C\C=C2/CCC[C@]3(C)[C@@H]([C@H](C)C[C@@H]4OC(=O)C(=C)[C@H]4CC(C)C)CC[C@@H]23)C[C@@H](O)[C@H](CCCO)[C@@H]1O` as the molecule, how does the IC50 read?
A: Its IC50 is 9.3 nM.

Q: Which IC50 does the source give for `C=C1C(=O)O[C@@H](C[C@@H](C)[C@H]2CC[C@H]3/C(=C/C=C4/C[C@@H](O)[C@H](CCCO)[C@H](O)C4=C)CCC[C@]23C)[C@@H]1C` here?
A: The IC50 was 6.2 nM.

Q: With `C=C1/C(=C\C=C2/CCC[C@]3(C)[C@@H]([C@H](C)C[C@H]4OC(=O)C(=C)[C@H]4CC(C)C)CC[C@@H]23)C[C@@H](O)[C@H](CCCO)[C@@H]1O` as the molecule, how does the IC50 read?
A: The IC50 was 9.3 nM.

Q: With `C=C1/C(=C\C=C2/CCC[C@]3(C)[C@@H]([C@H](C)C[C@H]4OC(=O)C(=C)[C@@H]4CCC)CC[C@@H]23)C[C@@H](O)[C@H](C)[C@@H]1O` as the molecule, how does the IC50 read?
A: Its IC50 is 6.3 nM.

Q: Which IC50 does the source give for `C=C1/C(=C\C=C2/CCC[C@]3(C)[C@@H]([C@H](C)C[C@H]4OC(=O)C(=C)[C@@H]4CC(C)C)CC[C@@H]23)C[C@@H](O)[C@H](CCCO)[C@@H]1O` here?
A: Its IC50 is 9.3 nM.

Q: Which IC50 does the source give for `C=C1/C(=C\C=C2/CCC[C@]3(C)[C@@H]([C@H](C)C[C@@H]4OC(=O)C(=C)[C@@H]4C)CC[C@@H]23)C[C@@H](O)[C@H](CCCO)[C@@H]1O` here?
A: The IC50 was 6.2 nM.

Q: For `C=C1C(=O)O[C@@H](C[C@@H](C)[C@H]2CC[C@H]3/C(=C/C=C4/C[C@@H](O)C[C@H](O)C4=C)CCC[C@]23C)[C@@H]1CC`, which IC50 is on record?
A: The IC50 was 8.6 nM.

Q: With `C=C1/C(=C\C=C2/CCC[C@]3(C)[C@@H]([C@H](C)C[C@@H]4OC(=O)C(=C)[C@H]4CCC)CC[C@@H]23)C[C@@H](O)[C@H](CCCO)[C@@H]1O` as the molecule, how does the IC50 read?
A: The IC50 was 6.3 nM.

Q: Which IC50 does the source give for `C=C1/C(=C\C=C2/CCC[C@]3(C)[C@@H]([C@H](C)C[C@@H]4OC(=O)C(=C)[C@@H]4CC(C)C)CC[C@@H]23)C[C@@H](O)[C@H](CCCO)[C@@H]1O` here?
A: Its IC50 is 9.3 nM.

Q: Which IC50 does the source give for `C=C1/C(=C\C=C2/CCC[C@]3(C)[C@@H]([C@H](C)C[C@@H]4OC(=O)C(=C)[C@@H]4C)CC[C@@H]23)C[C@@H](O)C[C@@H]1O` here?
A: The IC50 was 7.7 nM.

Q: For `C=C1/C(=C\C=C2/CCC[C@]3(C)[C@@H]([C@H](C)C[C@@H]4OC(=O)C(=C)[C@@H]4CC(C)C)CC[C@@H]23)C[C@@H](O)[C@H](C)[C@@H]1O`, which IC50 is on record?
A: Its IC50 is 11 nM.

Q: Which IC50 does the source give for `C=C1/C(=C\C=C2/CCC[C@]3(C)[C@@H]([C@H](C)C[C@@H]4OC(=O)C(=C)[C@@H]4CCC)CC[C@@H]23)C[C@@H](O)C[C@@H]1O` here?
A: Its IC50 is 6 nM.

Q: With `C=C1/C(=C\C=C2/CCC[C@]3(C)[C@@H]([C@H](C)C[C@@H]4OC(=O)C(=C)[C@@H]4CC)CC[C@@H]23)C[C@@H](O)[C@H](CCCO)[C@@H]1O` as the molecule, how does the IC50 read?
A: The IC50 was 8.4 nM.

Q: With `C=C1/C(=C\C=C2/CCC[C@]3(C)[C@@H]([C@H](C)C[C@@H]4OC(=O)C(=C)[C@H]4CCCC)CC[C@@H]23)C[C@@H](O)[C@H](OCCCO)[C@@H]1O` as the molecule, how does the IC50 read?
A: Its IC50 is 8.8 nM.

Q: For `C=C1/C(=C\C=C2/CCC[C@]3(C)[C@@H]([C@H](C)C[C@@H]4OC(=O)C(=C)[C@H]4CC)CC[C@@H]23)C[C@@H](O)[C@H](OCCCO)[C@@H]1O`, which IC50 is on record?
A: Its IC50 is 8.4 nM.

Q: Which IC50 does the source give for `C=C1/C(=C\C=C2/CCC[C@]3(C)[C@@H]([C@H](C)C[C@H]4OC(=O)C(=C)[C@@H]4C)CC[C@@H]23)C[C@@H](O)[C@H](C)[C@@H]1O` here?
A: The IC50 was 8.1 nM.

Q: With `C=C1/C(=C\C=C2/CCC[C@]3(C)[C@@H]([C@H](C)C[C@H]4OC(=O)C(=C)[C@@H]4CC(C)C)CC[C@@H]23)C[C@@H](O)[C@H](OCCCO)[C@@H]1O` as the molecule, how does the IC50 read?
A: The IC50 was 9.3 nM.
